Laboratory results published in patent US12528777B2, “Quinazolinones derivatives for treatment of non-alcoholic fatty liver disease, preparation and use thereof” (Council of Scientific and Industrial Research, priority 2020, dated 2026).
Entries after “also recorded” stand apart in the source; their conditions may differ.

Experiments:
HepG2 cells = assay: Confocal microscopy: lipid droplets in oleate induced HepG2 cells; assay type: cell-based; parameters: key to Reduction in Lipid Droplets: + = slight or in insignificant; ++ = Moderate; +++ and ++++ = active; +++ and ++++ = active; +++++ = very active; settings: for Reduction in Lipid Droplets: oleate induced HepG2 cells, score
Procedure: (§1) To select the compounds capable of inhibiting the ubiquitination of ATGL by COP1 by targeting the VP motif, confocal microscopy was performed with the provided molecules. If the compound was effective in inhibiting the interaction, there would be a reduction in the number of fat droplets in the cells after treatment. […] With this rationale in mind, HepG2 cells were induced to accumulate lipid droplets after treatment with 250 µM of oleate and 10 μM of the specific compounds were added. The potential of the compounds to bring about a reduction in the number of fat droplets was then checked by comparison with oleate induced cells by counting number of droplets of approximately 20 cells from each treatment and calculating the average number of lipid droplets of each cell. The selected compounds were then subjected to dose dependent treatments and the ones which could maintain its potency to reduce fat droplets at lower doses were then selected for western blot analysis. The compound which could reduce the number of fat droplets in the cells are expected to raise the levels of ATGL since they are likely to deter COP1 from ubiquitinating ATGL. This increase will be visible only in the protein level and gene expression is likely to remain unchanged since ubiquitination is a […] modification. Thus, western blot was performed to check ATGL levels in the cells with the selected molecules.
HepG2 cells were plated in confocal dishes (SPL, Genetix Biotech Asia Pvt. Ltd.). The cells were allowed to adhere and divide for 16 hours. 10 μM for initial screening and 10 nM, 20 nM, 50 nM, 100 nM, 200 nM, 500 nM, 1 μM and 5 μM for dose dependent assays of the compounds 9 and 107 were dissolved in DMSO and added to the cells. 250 μM of oleate was used for induction. BSA (Sigma Aldrich) was used as a negative control. Post 24 hours of treatment, media was decanted from the cells and washed with 1×PBS solution to remove any remnant. 200 μl of staining solution containing 200 ng/ml BODIPY (Invitrogen) and 25 µg/ml HOECKST342 (Invitrogen) were added to the cells and incubated at 37° C. for 30 minutes under dark conditions. Cells were washed 3 times with 1×PBS to remove excess stain. FLUOVIEW FV10i (Olympus) was used to visualise the cells.

ATGL = assay: Western blot of ATGL level in HepG2 cells; assay type: cell-based; parameters: key to Increase in ATGL level: + = slight or in insignificant; ++ = Moderate; +++ and ++++ = active; +++ and ++++ = active; +++++ = very active; settings: western blot; for Increase in ATGL level: HepG2 cells, score; for ATGL level in HepG2 cells: 24 hours, 10 μM screening or 50 nM-5 μM dose dependent
Procedure: as §1
HepG2 cells were treated with the compounds 9, 10, 11, 17, 18, 23, 24, 115, 123, 127, 139,107, 171, 179, 73, 187, 211, 215, 219, 223, 232, 238, 241, 244, 258, 299, 308, and 333a, (10 μM for initial screening and 50 nM, 100 nM, 200 nM, 500 nM, 1 μM and 5 μM for dose dependent assays) for 24 hours. After removing media from the cells, the wells were washed with 1×PBS twice to remove any remnant media. Cells were then lysed in lysis buffer containing 50 mM Tris-HCl (pH 7.4), 100 mM NaCl, 1 mM EDTA, 1 mM EGTA, 1% Triton X-100 and protease inhibitor cocktail (Millipore, Billierica, MA, USA). Following centrifugation at 20,000 g for 20 minutes, the protein solution was extracted from the cells. Protein was estimated using Bradford assay. Bradford's reagent (BioRad) was diluted in 1:4 ratio in double distilled water. 2 μl of protein sample was added to 100 μl of the reagent and absorbance was measured at 595 nm. […] of protein was diluted in lysis buffer. 1× loading buffer diluted from 5× stock containing 250 mM Tris-HCl (pH 6.8), 10% SDS, 50% glycerol, 0.1% bromophenol Blue and 10% β-mercaptoethanol was added. The protein samples were then heated at 95° C. for 10 minutes, cooled and centrifuged at 12,000 g for 2 minutes prior to loading.
For western blotting, the proteins were resolved in 10% SDS PAGE (discontinuous buffer system). 1× running buffer containing SDS, Tris Base and Glycine was used to run the gel at 80V for approximately 2 hours. Transfer was done using PVDF membrane (Millipore) having pore size of 0.45 μm. 1× transfer buffer containing Tris-Base, Glycine and 20% methanol was used for wet transfer. Transfer was done at 90V for 3 hours. Following transfer, the PVDF membrane containing the proteins were washed in 1×PBST comprising of 1×PBS and 1% Tween 20 (Sigma Aldrich). The membrane was then incubated for 1 hour at room temperature in 5% skim milk powder to block the non-specific sites. Following multiple washes with 1×PBST to wash away any remaining blocking buffer, the required primary antibody (COP1 [Bethyl Laboraties], ATGL [Cell Signalling Technology] or Actin[Cell Signalling Technology]) prepared with 1×PBST, 1% Bovine Serum Albumin and 0.04% Sodium Azide was added to the membrane and incubated overnight at 4° C. The next day, the membrane was again washed multiple times with 1×PBST to remove any unbound primary antibody. The membrane was then incubated with goat anti-rabbit secondary antibody (Genei) for 1 hour at room temperature and washed again for multiple times with 1×PBST. […]

Row | SMILES | Reduction in Lipid Droplets (HepG2 cells) | Increase in ATGL level (ATGL) | Number of lipid droplets (HepG2 cells; HepG2 cells, 250 μM oleate induction) | ATGL level in HepG2 cells (ATGL)
1 | COCCn1cnc2ccc(NC(=O)Nc3ccccc3)cc2c1=O [Compound 5, 1-(3-(2-methoxyethyl)-4-oxo-3,4-dihydroquinazolin-6-yl)-3-phenylurea] | ++ | ++ | – | –
2 | COCCn1cnc2ccc(NC(=O)Nc3cccc(OC)c3)cc2c1=O [Compound 6, 1-(3-(2-methoxyethyl)-4-oxo-3,4-dihydroquinazolin-6-yl)-3-(3-methoxyphenyl)urea] | ++++ | ++++ | reduction of lipid droplet | increase in ATGL level
3 | COCCn1cnc2ccc(NC(=O)Nc3cccc([N+](=O)[O-])c3)cc2c1=O [Compound 8, 1-(3-(2-methoxyethyl)-4-oxo-3,4-dihydroquinazolin-6-yl)-3-(3-nitrophenyl)urea] | ++ | + | – | –
4 | COCCn1cnc2ccc(NC(=O)Nc3cccc(C(C)O)c3)cc2c1=O (centres unmarked) [Compound 11, 1-(3-(1-hydroxyethyl)phenyl)-3-(3-(2-methoxyethyl)-4-oxo-3,4-dihydroquinazolin-6-yl)urea] | + | + | – | increased ATGL level
5 | COCCn1cnc2ccc(NC(=O)Nc3cc(C(=O)OC)ccc3OC)cc2c1=O [Compound 12, methyl 4-methoxy-3-(3-(3-(2-methoxyethyl)-4-oxo-3,4-dihydroquinazolin-6-yl)ureido)benzoate] | ++ | +++ | – | –
6 | CCc1cccc(NC(=O)Nc2ccc3ncn(CCOC)c(=O)c3c2)c1 [Compound 13, 1-(3-ethylphenyl)-3-(3-(2-methoxyethyl)-4-oxo-3,4-dihydroquinazolin-6-yl)urea] | + | + | – | –
7 | COCCn1cnc2ccc(NC(=O)Nc3cccc(C(=O)c4ccccc4)c3)cc2c1=O [Compound 14, 1-(3-benzoylphenyl)-3-(3-(2-methoxyethyl)-4-oxo-3,4-dihydroquinazolin-6-yl)urea] | + | + | – | –
8 | COCCn1cnc2ccc(NC(=O)Nc3cccc(C(=O)NC4CCCCC4)c3)cc2c1=O [Compound 15, N-cyclohexyl-3-(3-(3-(2-methoxyethyl)-4-oxo-3,4-dihydroquinazolin-6-yl)ureido)benzamide] | + | ++++ | – | –
9 | COCCn1cnc2ccc(NC(=O)Nc3cccc(C(=O)NC(C(=O)OC)C(C)C)c3)cc2c1=O (centres unmarked) [Compound 16, methyl 2-(3-(3-(3-(2-methoxyethyl)-4-oxo-3,4-dihydroquinazolin-6-yl)ureido)benzamido)-3-methylbutanoate] | +++ | ++++ | – | –
10 | COCCn1cnc2ccc(NC(=O)Nc3cccc(C(=O)N(C)C)c3)cc2c1=O [Compound 17, 3-(3-(3-(2-methoxyethyl)-4-oxo-3,4-dihydroquinazolin-6-yl)ureido)-N,N-dimethylbenzamide] | +++ | +++ | – | increased ATGL level; also recorded: ability to increase ATGL level
11 | CC(=O)c1cccc(NC(=O)Nc2ccc3ncn(N4CCOCC4)c(=O)c3c2)c1 [Compound 340, 1-(3-acetylphenyl)-3-(3-morpholino-4-oxo-3,4-dihydroquinazolin-6-yl)urea] | – | + | – | –
12 | COCCn1c(C)nc2ccc(NC(=O)Nc3cccc(C(C)=O)c3)c(Br)c2c1=O [Compound 345, 1-(3-acetylphenyl)-3-(5-bromo-3-(2-methoxyethyl)-2-methyl-4-oxo-3,4-dihydroquinazolin-6-yl)urea] | – | + | – | –
